Data as given in US7098204B2 (C.N.R.S., priority 1999, dated 2006).
In brackets after ≈: the same amount, converted by molar mass. Like-named read-outs stand apart in the source and are kept apart here.

Legend:
cdk5/p25 = cdk5/p25 (Homo sapiens, UniProt Q00535); assay: CDK5/p25 kinase assay; assay type: biochemical; details: for IC50: 15 μM ATP, −(x) = no effect at highest concentration x tested
Procedure: (§1) Kinases activities were assayed in Buffer A or C (unless otherwise stated), at 30° C., at a final ATP concentration of 15 μM. Blank values were subtracted and activities calculated as pmoles of phosphate incorporated for a 10 min. incubation (usually expressed in % of the maximal activity, i.e. without inhibitors). Controls were performed with appropriate dilutions of Me2SO. In some cases phosphorylation of the substrate was assessed by autoradiography after SDS-PAGE. IC50 values were estimated from the dose-response curves. • CDK1/cyclin B was extracted in homogenisation buffer from M phase starfish (Marthasterias glacialis) oocytes and purified by affinity chromatography on p9^CKShs1-Sepharose beads, from which it was eluted by free p9^CKShs1 as described. The kinase activity was assayed in buffer C, with 1 mg histone H1/ml, in the presence of 15 μM [γ-^32P] ATP (3,000 Ci/mmol; 1 mCi/ml) in a final volume of 30 μl. After 10 min. incubation at 30° C., 25 μl aliquots of supernatant were spotted onto 2.5×3 cm pieces of Whatman P81 phosphocellulose paper, and, 20 sec. later, the filters were washed five times (for at least 5 min. each time) in a solution of 10 ml phosphoric acid/liter of water. The wet filters were counted in the presence of 1 ml ACS (Amersham) scintillation fluid. • GSK-3β was either purified from rabbit muscle or expressed in and purified from insect Sf9 cells. It was assayed, following a 1/100 dilution in 1 mg BSA/ml 10 mM DTT, with 5 μl 40 μM GS-1 peptide as a substrate, in buffer A, in the presence of 15 μM [γ-^32P] ATP (3,000 Ci/mmol; 1 mCi/ml) in a final volume of 30 μl. […] Its activity was assayed in buffer C as described for CDK1/cyclin B. • CDK2/cyclin A, CDK2/cyclin E, CDK3/cyclin E, CDK4/cyclin D1, CDK6/cyclin D2, His-tagged erk1 and erk2, protein kinase C isoforms, the catalytic subunit of cAMP-dependent protein kinase, cGMP-dependent protein kinase, Myosin light chain kinase, casein kinases 1 & 2, ASK-γ (a plant homologue of GSK-3), insulin receptor tyrosine kinase domain (CIRK-41), c-raf, MAPKK, c-jun N terminal kinase (obtained from Promega), c-src kinase and v-abl kinase were assayed as described. Electrophoresis and Western Blotting

GSK3-β = molecular target: T1, GSK3-β (UniProt P18266); assay: GSK-3β kinase assay (GS-1 peptide); assay type: biochemical, rabbit
T1 construct: GSK-3β was either purified from rabbit muscle or expressed in and purified from insect Sf9 cells [18]
Procedure: as §1

casein kinase 1 = casein kinase 1 assay; assay type: biochemical; details: 15 μM ATP; −(x) = no effect at highest concentration x tested; read-out: IC50 casein kinase 1 (CK 1)
Procedure: as §1

CDK1/cyclin B = CDK1/cyclin B kinase assay (histone H1); assay type: biochemical, starfish (Marthasterias glacialis); details: 15 μM ATP; −(x) = no effect at highest concentration x tested
Procedure: as §1

ovary, OVCAR-3 = assay: Human cancer cell line OVCAR-3 proliferation; assay type: cell-based
kidney, A498 = assay: Human cancer cell line A498 proliferation; assay type: cell-based
melanoma, SK-MEL-5 = assay: Human cancer cell line SK-MEL-5 proliferation; assay type: cell-based
brain, SF-295 = assay: Human cancer cell line SF-295 proliferation; assay type: cell-based
lung, H460 = assay: Human cancer cell line H460 proliferation; assay type: cell-based; details: NCI-H460
colon, KM20L2 = assay: Human cancer cell line KM20L2 proliferation; assay type: cell-based; details: KM-20L2
[1] = system: GSK-3β like activity in Sf9 cells; assay: Tau (htau23) phosphorylation in Sf9 cells, Western blotting; assay type: cell-based; details: 50 μM, 5 hrs, Sf9 cells expressing htau23
P388 cell line = assay: Inhibition of cell proliferation, P388; assay type: cell-based
[2] = 15 μM ATP, −(x) = no effect at highest concentration x tested, read-out: IC50 GSK3-β

Sequence of cdk5/p25 (Q00535 whole entry, species assumed): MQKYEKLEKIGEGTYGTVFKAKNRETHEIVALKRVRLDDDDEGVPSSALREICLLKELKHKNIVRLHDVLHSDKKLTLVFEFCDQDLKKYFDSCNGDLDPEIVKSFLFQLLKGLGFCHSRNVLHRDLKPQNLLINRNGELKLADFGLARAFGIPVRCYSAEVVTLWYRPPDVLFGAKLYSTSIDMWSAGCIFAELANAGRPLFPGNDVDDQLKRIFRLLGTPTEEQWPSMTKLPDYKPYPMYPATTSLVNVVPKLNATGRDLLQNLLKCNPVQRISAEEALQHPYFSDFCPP
Sequence of cdk5/p25 (Q15078 99-307 partner limits assumed, species assumed): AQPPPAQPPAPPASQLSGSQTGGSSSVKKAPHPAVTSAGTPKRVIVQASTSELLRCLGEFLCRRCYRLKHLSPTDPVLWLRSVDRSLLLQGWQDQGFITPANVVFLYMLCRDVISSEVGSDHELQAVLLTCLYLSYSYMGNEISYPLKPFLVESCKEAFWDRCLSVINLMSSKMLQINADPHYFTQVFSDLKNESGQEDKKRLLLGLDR

IC50 (cdk5/p25) [µM] | IC50 (GSK3-β; [2]) [µM] | IC50 (casein kinase 1) [µM] | IC50 (CDK1/cyclin B) [µM] | Compound | also measured
> 100 | > 100 | > 100 | 70 | Nc1ncc(C2=CCNC(=O)c3[nH]c(Br)c(Br)c32)[nH]1 [stevensine/odiline] | 
7 | 3 | 4.5 | 4 | O=C1NC(=O)/C(=C2/CCNC(=O)c3[nH]c(Br)cc32)N1 [axinohydantoin] | 
50 | 20 | > 100 | > 100 | Nc1ncc(/C=C/CNC(=O)c2cc(Br)c(Br)[nH]2)[nH]1 [oroïdin] | 
> 100 | > 100 | > 100 | > 100 | NC1=NC(=O)/C(=C/CCNC(=O)c2cc(Br)c(Br)[nH]2)N1 [dispacamide A] | 
> 100 |  | > 100 | > 100 | NC1=N[C@H]2c3c([nH]c(Br)c3Br)C(=O)N3CCC[C@]23N1 [dibromocantharelline] | IC50 (GSK3-β; read-out: IC50 towards GSK-3β): 3 µM
> 100 |  | > 100 | > 100 | Nc1ncc(/C=C/CNC(=O)c2ccc[nH]2)[nH]1 [clathrodin] | 
> 100 | > 100 | > 100 | > 100 | Nc1nc([C@H]2[C@H](CNC(=O)c3cc(Br)c[nH]3)[C@@H](CNC(=O)c3cc(Br)c[nH]3)[C@@H]2c2c[nH]c(N)n2)c[nH]1 [sceptrin] | 

More lines, now with the values behind:

Compound | IC50 (cdk5/p25) [µM] | IC50 (GSK3-β; [2]) [µM] | IC50 (casein kinase 1) [µM] | IC50 (CDK1/cyclin B) [µM] | also measured
agelastatin A | > 100 | 12 | > 100 | > 100 | 
Nc1ncc(C2c3nc(N)[nH]c3CC(CNC(=O)c3cc(Br)c(Br)[nH]3)C2CNC(=O)c2cc(Br)c(Br)[nH]2)[nH]1 (centres unmarked) [dibromoageliferin] | > 100 | 11 | > 100 | > 100 | 
O=C1N[C@H]2n3c(cc(Br)c3Br)C(=O)N3CCC[C@]23N1 [dibromophakellstatin] | > 100 | > 10 | > 10 | > 10 | IC50 (ovary, OVCAR-3): 0.46 µg/mL (≈ 1.18 µM); IC50 (kidney, A498): 0.21 µg/mL (≈ 0.538 µM); IC50 (melanoma, SK-MEL-5): 0.11 µg/mL (≈ 0.282 µM); IC50 (brain, SF-295): 1.5 µg/mL (≈ 3.85 µM); IC50 (lung, H460): 0.62 µg/mL (≈ 1.59 µM); IC50 (colon, KM20L2): 0.11 µg/mL (≈ 0.282 µM)
NC1=N[C@H]2n3c(cc(Br)c3Br)C(=O)N3CCC[C@]23N1 [dibromophakellin, reference compound] |  |  |  |  | IC50 (ovary, OVCAR-3): 15.7 µg/mL (≈ 40.4 µM); IC50 (kidney, A498): 17.8 µg/mL (≈ 45.8 µM); IC50 (melanoma, SK-MEL-5): 17 µg/mL (≈ 43.7 µM); IC50 (brain, SF-295): 18.8 µg/mL (≈ 48.3 µM); IC50 (lung, H460): 22 µg/mL (≈ 56.5 µM); IC50 (colon, KM20L2): 20.1 µg/mL (≈ 51.7 µM)
CN1CC[C@H](c2c(O)cc(O)c3c(=O)cc(-c4ccccc4Cl)oc23)[C@H](O)C1 [flavopiridol, reference compound] |  |  |  |  | AT100 signal (tau phosphorylated at T212 and S214) [1]: disappearance of AT100 signal
Nc1ncc(/C=C/CNC(=O)c2cc(Br)c[nH]2)[nH]1 [hymenidin] | 4 | 12 | > 100 | > 100 | kinase selectivity among CDK1, CDK5, GSK-3β, CK1 (cdk5/p25; in words): selective for CDK5
O=C([O-])c1ccc[n+](CCOC(=O)c2cc(Br)c[nH]2)c1 [agelongine] | > 100 | > 100 | > 100 | > 100 | 
diacetyldebromohymenialdisine | 3 | 0.6 | 1.1 | 1.3 | 
diacetylhymenialdisine | 1.5 | 0.16 | 0.55 | 0.13 | IC50 on P388 cell line (P388 cell line): 0.56 µg/mL; IC50 (P388 cell line; read-out: IC50 on P388 cell line in μM (parentheses)): 1.7 µM
